From US7229621B2, “Method to enhance the immunogenicity of an antigen” (Torrey Pines Institute for Molecular Studies, priority 1998, dated 2007)
“And” between values parts separate entries of the source, which are not always exact repeats. Equal values may be shown once.

How the values were obtained:
[1] = tested on: E.G7-OVA tumor cells; assay: E.G7-OVA tumor growth after immunization with tumor antigen and migration inducer; assay type: in vivo, C57BL/6 mice
Source text: The tumor cell, E.G7-OVA, is the C57BL/6 EL4 thymoma transfected with the complete gene for chicken ovalbumin (OVA). The transfected cell line expresses OVA protein, which is also processed naturally by E.G7-OVA cells into an eight amino acid peptide, OVA257-264, with the sequence […]. […] Based on the positive results using FITC, the inventors followed a similar protocol in an attempt to induce immunity to the E.G7-OVA tumor by topical administration of the well-characterized, synthetic […] tumor-associated peptide.
C57BL/6 mice were treated as follows: 1) shaving alone; 2) topical administration of acetone and dibutyl phthalate; 3) topical administration of […] (240 μg/ml) in DMSO diluted in PBS, followed in 5 hours by acetone and dibutyl phthalate; and 4) topical administration of […] (240 μg/ml) in acetone and dibutyl phthalate. All mice were subsequently injected subcutaneously with 5×10^5 E.G7-OVA cells (5-times the minimal tumorogenic dose). Tumor-specific immunity was monitored by measuring the size of the developing tumor.
(§1) The mucous membranes lack the tough barrier posed by the stratum corneum of the skin. […] The EL4 parent tumor cell line, lacking chicken ovalbumin, was used as a negative control; no immunity against the EL4 tumor cells was seen. Thus, the inventors' hypothesis regarding penetration of the stratum corneum was confirmed; the […] peptide was not effectively reaching the immature dendritic cells, known as Langerhans cells, underlying the stratum corneum.
To enhance the effectiveness of cutaneous topical administration of peptide, […] was dissolved in DMSO and applied to the skin without further dilution. Dibutyl phthalate in a 50:50 mixture with acetone was applied to the same site 5 hr later. All mice were subsequently injected subcutaneously with 5×10^5 E.G7-OVA cells. The results shown in FIG. 6 indicate that the peptide in concentrated DMSO was apparently able to traverse the stratum corneum, effectively gaining access to the epidermal Langerhans cells. […] Thus, the tumor-specific peptide, […], in concentrated DMSO, penetrated the stratum corneum in sufficient concentration to be incorporated into the MHC class I molecule K^b on epidermal Langerhans cells, and in the presence of the migration inducer, dibutyl phthalate, was effectively presented to CD8+ CTLs in the draining lymph nodes.
To confirm the immunogenicity of the disclosed treatment, groups of 10 C57BL/6 mice were injected with 50 μl of 1.25 mM OVA protein in HBSS, with HBSS alone, or with nothing. This was followed an hour later by topical application of DBP in acetone or with nothing. One month later, the mice were inoculated subcutaneously with 5×10^5 EL4 tumor cells or with 5×10^5 E.G7-OVA tumor cells and subsequent tumor growth was measured.

[2] = tested on: EL4 tumor cells; assay: EL4 parent tumor growth (negative control tumor) after intravaginal immunization; assay type: in vivo, C57BL/6 mice; conditions: SIINFEKL in acetone and dibutyl phthalate intravaginally; EL4 lacks ovalbumin
Source text: as §1

[3] = tested on: dendritic cells in draining lymph node; assay: Antigen-bearing dendritic cells in lymph node after aqueous antigen applied to skin with DBP and acetone; assay type: in vivo; conditions: aqueous solution applied to the skin with topical DBP and acetone (data not shown)
Source text: Similarly, when an aqueous solution of a […] peptide or OVA protein antigen was applied to the skin along with topical application of the migration inducer, DBP and acetone, no detectable antigen-bearing (i.e., K^b:[…] positive) dendritic cells appeared in the draining lymph node (data not shown).

[4] = tested on: E.G7-OVA cells; assay: K^b:[…] complexes on E.G7-OVA cells (mAb 25-D1.16 fluorescence standard); assay type: cell-based, C57BL/6; conditions: endogenous SIINFEKL
Source text: As stated previously, whether mature antigen-bearing dendritic cells will be encountered by and activate naive T cells in the lymph node is likely to depend not only on the number of antigen-bearing dendritic cells that enter the node, but also on the density of MHC:peptide complexes expressed on their membranes. To estimate the density of peptide:MHC complexes on the immigrant dendritic cells generated by this procedure, we compared the fluorescence intensity of various cell populations detected by the peptide:MHC-specific mAb, 25-D1.16, using identical staining conditions and flow cytometer settings. The results are shown in Table IV, providing the number of specific peptide:MHC complexes expressed on the plasma membrane of dendritic cells after various treatments in vitro or in vivo.
The tumor cell, E.G7-OVA, is the C57BL/6 EL4 thymoma transfected with the complete gene for chicken ovalbumin (OVA). […] The number of those complexes expressed per cell has been measured independently by two different laboratories and reported to be 88 (Rotzschke et al. 1991 Eur. J. Immunol. 21:2891–2894) and 90 (Malarkannan et al. 1995 J. Exp. Med. 182:1739–1750). Therefore, the fluorescence intensity of E.G7-OVA could be used as a standard by which to estimate the number of K^b:[…] complexes expressed on the dendritic cell populations identified in the present study. […]

[5] = tested on: E.G7-OVA cells; conditions: endogenous SIINFEKL, reported by Rotzschke et al. and Malarkannan et al.; cited from earlier work

SIINFEKL [eight amino acid peptide OVA257-264 of chicken ovalbumin, tumor-associated peptide antigen presented by K^b]
protection against E.G7-OVA tumor ([1]; SIINFEKL in acetone and dibutyl phthalate applied to the vaginal epithelium (FIG. 5)): protection against the tumor was induced | established E.G7-OVA tumors ([1]; SIINFEKL in undiluted DMSO on skin, dibutyl phthalate 50:50 acetone 5 hr later (FIG. 6)): diminished by 16 days post-inoculation | E.G7-OVA tumor growth ([1]; SIINFEKL in undiluted DMSO on skin, dibutyl phthalate 50:50 acetone 5 hr later, 5×10^5 cells s.c. (FIG. 6)): suppressed after 6 to 9 days | inhibition of E.G7-OVA tumor cell growth ([1]; cutaneous topical SIINFEKL 240 μg/ml in DMSO diluted in PBS then acetone and dibutyl phthalate, or in acetone and dibutyl phthalate, 5×10^5 cells s.c. (FIG. 4)): none of the treatment protocols were effective | immunity against EL4 tumor cells [2]: no immunity | antigen-bearing (K^b:SIINFEKL positive) dendritic cells in the draining lymph node [3]: no detectable | Median Specific Fl. Intensity [4]: 4.5 | Median No. of Complexes/Cell [5]: 88 complexes/cell and 90 complexes/cell and 89^d complexes/cell
